Paper PMC12705613 (Frontiers in Microbiology, 2025)
Structures can show the parent of a compound that is named as a salt. Blank lines part the entries; values can stand above or below the compound they belong to.

Key:
[1] = Body weight and blood pressure during ceftriaxone treatment; conditions: ceftriaxone sodium 400 mg/kg/day orally, 2 weeks; WKYs and SHRs
gut microbiota = assay: Fecal gut microbiota analysis after ceftriaxone treatment (16S rRNA, bacterial load); assay type: in vivo, rat; conditions: ceftriaxone sodium 400 mg/kg/day orally, 2 weeks; feces of WKYs and SHRs
Method: Fecal samples were freshly collected, rapidly frozen, and weighed before storage at −80 °C until use. The absolute quantification of bacterial 16S rRNA amplicon sequencing was conducted by Majorbio Bio-Pharm Technology Co. Ltd. in Shanghai, China. Total microbial genomic DNA was extracted using the E. Z. N. A.® Soil DNA Kit, following the manufacturer’s guidelines. The quality and concentration of the extracted DNA were assessed through 1.0% agarose gel electrophoresis and with a NanoDrop 2000 spectrophotometer. RT-PCR was performed using universal 16S primers (Forward: 5′-[sequence]-3′, Reverse: 5′-[sequence]-3′) ([Nadkarni et al., 2002]). The relative bacterial load was determined by normalizing the DNA content against the weight of feces from the untreated group.
Fecal DNA was extracted utilizing the E. Z. N. A.® Soil DNA Kit. The extracted DNA was analyzed using a 1% agarose gel, and its concentration and purity were assessed with NanoDrop2000 spectrophotometer. […] The resulting PCR products were purified, quantified, and homogenized to create a sequencing library, which was commissioned to Majorbio Bio Pharm Technology Co. Ltd. The sequencing data were processed using the DADA2 algorithm in Qiime 2 to obtain amplicon sequence variants (ASVs), followed by the removal of chloroplast and mitochondrial sequences. […]

[2] = design: method as in Yoo et al., 2016; conditions: ref Yoo et al., 2016; cited from earlier work
[3] = Stability of the analytes in rat plasma at different storage conditions; assay type: in vitro ADME
Method: Analysis of QC samples was performed according to a standard curve, which was obtained from freshly prepared calibration standard samples. The autosampler stability was determined by placing samples in the autosampler rack at 8 ℃ for 24 h. The freeze-thaw stability was evaluated after three complete freeze-thaw cycles (-80 ℃ to 25 ℃) on consecutive days. The short-term stability was determined after samples were exposed to room temperature for 6 h. The long-term stability was assessed after storing the samples at -80 ℃ for 30 days. The analytes were considered stable if the deviation between the mean measured concentration and the nominal concentration was within ± 15.0%.

[4] = Metabolites detection in vivo in plasma, feces and urine (UHPLC-Q-TOF-MS); design: species or system rat; conditions: single oral losartan potassium 20 mg/kg
Method: For urine and feces, cumulative samples were collected over the following time intervals: 0–4, 4–8, 8–12, and 12–24 h after administration. The processing of the biological samples can be found in the Supplementary material.
The biological samples were processed as follows: For plasma, a total of 400 μL of pooled plasma was mixed by combining 50 μL aliquots from each time point. A 100 μL aliquot was mixed with 300 μL of methanol, vortexed for one minute, and centrifuged at 5,000 rpm for 10 minutes at 4°C [1]. In the case of urine, 1 mL was centrifuged at 4,000 rpm for 20 minutes at 4°C, and the supernatant was mixed with 2 mL of methanol, vortexed for one minute, and centrifuged at 12,000 rpm for 10 minutes at 4°C [2]. For fecal samples, 1.0 g of homogenized feces was extracted with 4 mL of methanol, sonicated in an ice-water bath for 20 minutes, and then centrifuged at 12,000 rpm for 10 minutes at 4°C [3]. Supernatants from the plasma, urine, and fecal extracts were evaporated under nitrogen gas, redissolved in methanol, and transferred to liquid chromatography vials. Samples were analyzed using UHPLC-Q-TOF-MS/MS for metabolite profiling.

in vivo = conditions: for MRT last: MRT0-t; for MRT inf: MRT 0-∞; for half-life: t1/2z
Method: The pharmacokinetic study was described as follows.
The UHPLC-TQ-MS analysis was conducted on an LC-30 AD ultra high-performance liquid chromatograph (Shimadzu, Japan) connected to an AB 4500 (AB Sciex, United States) Triple Quadrupole Mass Spectrometer with an ESI source. Chromatographic separation was achieved on an Acquity UHPLC HSS T3 column (100 × 2.1 mm, 1.8 μm) at 40 °C, and the eluent was aqueous formic acid (100:0.1, v/v) (A) and acetonitrile with formic acid (100:0.1, v/v) (B) at a flow rate of 0.3 mL min^−1. Gradient elution differs in the calculation of residual content and pharmacokinetic experiments. MRM mode was employed. Data processing was performed using Analyst Software (AB Sciex). The UHPLC-TQ-MS method validation was conducted in terms of selectivity, linearity, carryover, accuracy and precision, matrix effect, extraction recovery, dilution integrity, and stability under various conditions, which was performed in line with the FDA guidelines for bioanalytical assays. More details were described in the Supplementary material method.
The comparisons of the relative abundance of the genera between different groups were performed using the Wilcoxon rank-sum test. Comparisons between WKY and SHRs before and after CRO treatment were conducted using either a t-test or one-way ANOVA, with p values < 0.05 considered statistically significant. […] Graphs were created using GraphPad Prism 8.0 software.
For the determination of drug remaining contents in the supernatant, the gradient elution was as follows: 0.1–0.5 min at 45% B; 0.5–1.0 min at 45–65% B; 1.5–4.0 min at 65–85% B; 4.0–4.5 min at 85% B; 4.5–4.6 min at 85%–45% B; 4.6–5.0 min at 45% B. For pharmacokinetics, the gradient elution was performed as follows: 0–0.5 min at 30% B; 0.5–1.5 min at 30–45% B; 1.5–5.0 min at 45–60% B; 5.0–7.0 min at 60–80% B; 7.0–8.0 min at 80% B; 8.1–10.0 min at 30% B. The injection volume was 5 μ L. The multiple reaction monitoring (MRM) mode was used to detect analytes and IS in the positive ion mode. The mass spectrometry parameters were set as follows: ion spray voltage was 5500 V, turbo spray temperature (TEM) of 550℃; nebulizer gas (gas 1) of 50 psi; heater gas (gas 2) of 50 psi and curtain gas of 40 psi. Nitrogen was kept as the nebulizer and auxiliary gas.

[5] = SHR, rat, in vivo, po, 20 mg/kg
[6] = WKY, rat, in vivo, po, 20 mg/kg

SMILES: CO/N=C(\C(=O)N[C@@H]1C(=O)N2C(C(=O)O)=C(CSc3nc(=O)c(=O)[nH]n3C)CS[C@H]12)c1csc(N)n1 [CRO, ceftriaxone disodium salt hemiheptahydrate]
Body weight, CRO-treated vs untreated [1]: no differences in body weight
α-diversity (Chao1, Shannon index) and bacterial abundance (gut microbiota): significant reduction

SMILES: CCOC(=O)C1=C(COCCN)NC(C)=C(C(=O)OC)C1c1ccccc1Cl (centres unmarked) [amlodipine]
Systemic exposure in antibiotic-treated rats vs controls [2]: significantly elevated

Stability RE ([3]; autosampler for 24 h (8 ℃), high nominal conc. (losartan 8000, E-3174 4000, E-3179 1600 ng/mL)): 2.34%
Stability RE ([3]; autosampler for 24 h (8 ℃), low nominal conc. (losartan 0.2, E-3174 10, E-3179 0.4 ng/mL)): 2.96%
Stability RE ([3]; autosampler for 24 h (8 ℃), middle nominal conc. (losartan 2000, E-3174 1000, E-3179 400 ng/mL)): 12.05%
Stability RE ([3]; room temperature for 6 h, high nominal conc. (losartan 8000, E-3174 4000, E-3179 1600 ng/mL)): -10.69%
Stability RE ([3]; room temperature for 6 h, low nominal conc. (losartan 0.2, E-3174 10, E-3179 0.4 ng/mL)): -2.22%
Stability RE ([3]; room temperature for 6 h, middle nominal conc. (losartan 2000, E-3174 1000, E-3179 400 ng/mL)): 4.87%
Stability RE ([3]; three freeze-thaw cycles, high nominal conc. (losartan 8000, E-3174 4000, E-3179 1600 ng/mL)): 6.66%
Stability RE ([3]; three freeze-thaw cycles, low nominal conc. (losartan 0.2, E-3174 10, E-3179 0.4 ng/mL)): 2.96%
Stability RE ([3]; three freeze-thaw cycles, middle nominal conc. (losartan 2000, E-3174 1000, E-3179 400 ng/mL)): 2.84%
Stability RE ([3]; −80°C for 30 days, high nominal conc. (losartan 8000, E-3174 4000, E-3179 1600 ng/mL)): 7.58%
Stability RE ([3]; −80°C for 30 days, low nominal conc. (losartan 0.2, E-3174 10, E-3179 0.4 ng/mL)): 3.27%
Stability RE ([3]; −80°C for 30 days, middle nominal conc. (losartan 2000, E-3174 1000, E-3179 400 ng/mL)): 9.16%
Abundance in feces and plasma, SHRs vs WKYs [4]: lower in SHRs than in WKYs
Abundance in urine, SHRs vs WKYs [4]: more abundant in urine
AUC0-∞ (in vivo; [5]): 900.54 ± 226.29 ng·h/mL
AUC(0-t) (in vivo; [5]): 850.57 ± 189.22 ng·h/mL
Cmax (in vivo; [5]): 143.43 ± 108.27 ng/mL
MRT0-t (in vivo; [5]): 7.68 ± 1.38 h
MRT 0-∞ (in vivo; [5]): 11.33 ± 2.86 h
Tmax (in vivo; [5]): 1.96 ± 1.15 h
t1/2z (in vivo; [5]): 5.61 ± 3.15 h
MRT last (in vivo; [5]): 6.99 ± 1.41 h
MRT inf (in vivo; [5]): 9.57 ± 2.83 h
Tmax (in vivo; SHR, rat, in vivo, po, 20 mg/kg, Tmax): 1.83 ± 1.69 h
half-life (in vivo; [5]): 5.51 ± 2.46 h
Decrease of AUC0-∞ (in vivo; SHRs compared to WKYs, losartan potassium 20 mg/kg intragastric): 36.13%
Cmax (in vivo; [6]): 310.47 ± 243.53 ng/mL
MRT0-t (in vivo; [6]): 10.46 ± 1.03 h
MRT 0-∞ (in vivo; [6]): 15.25 ± 4.02 h
t1/2z (in vivo; [6]): 5.29 ± 1.44 h
AUC(0-t) (in vivo; WKY, rat, in vivo, po, 20 mg/kg, AUC0-t): 1340 ± 741 ng·h/mL
AUC(0-inf) (in vivo; WKY, rat, in vivo, po, 20 mg/kg, AUC0-∞): 1410 ± 741 ng·h/mL
MRT last (in vivo; [6]): 6.18 ± 1.58 h
MRT inf (in vivo; [6]): 8.79 ± 4.19 h
half-life (in vivo; [6]): 5.75 ± 2.71 h
SMILES: CCCCc1nc(Cl)c(C=O)n1Cc1ccc(-c2ccccc2-c2nn[nH]n2)cc1 [E-3179]
